From patent publication US20020004632A1 (priority 2000, published 2002)

Experiments:
[1] = test system: dendritic spines; settings: low levels; cited from earlier work
[2] = test system: dendritic spines; settings: low levels; cited from earlier work; remark: listed apart in the source
[3] = test system: Rat hippocampal CA1 neurons; test: Spine morphology of transfected neurons in cultured hippocampal brain slices, 2PLSM imaging and automatic spine analysis algorithm; format: cell-based; settings: biollistic cotransfection with GFP; compared to the GFP control; at least 5 neurons per group
Description: Cultured hippocampal brain slices were prepared from 7 day old rats. After five days in vitro a small subset of neurons were biollistically transfected (for example, Lo, et al., (1994). Neuronal transfection in brain slices using particle-mediated gene transfer, Neuron 13, 1263-1268, the contents of which are hereby incorporated by reference) with a plasmid carrying the gene for enhanced green fluorescent protein (GFP) (commercially available from Clonetech) At least two days after transfection, slices were transferred to a perfusion chamber for imaging. Labeled neurons were identified and imaged using a custom-made 2PLSM laser scanning microscope (as described in Mainen, Z. F., Maletic-Savatic, M., Shi, S. H., Hayashi, Y., Malinow, R., and Svoboda, K. (1999), Two-photon imaging in living brain slices, Methods 18, 231-239, the contents of which are hereby incorporated by reference). The light source was a Ti:sapphire laser running at a wavelength of ≈990 nm (repetition frequency 80 MHz; pulse length 150 fs). The average power delivered to the backfocal plane of the objective (40x, NA 0.8) varied depending on the imaging depth (range 30 to 150 mW). Fluorescence was detected in whole-field detection mode with a photomultiplier tube.
mTOR kinase controls the phosphorylation of the translation regulators p70^56k and 4E-BP1. […]

| Molecule | actin-based spine motility [1] | lesion-induced spine degeneration [2] | spine density [3] |
| --- | --- | --- | --- |
| Cc1onc(O)c1CC(N)C(=O)O (stereo not drawn) [AMPA, alpha-amino-3-hydroxy-5-methyl-4-isoxalone] | abolished | block |  |
| N[C@@H](CCC(=O)O)C(=O)O [glutamate] | abolished |  |  |
| mTOR wt: wild-type mTOR kinase expressed from a plasmid transfected by biollistic gene transfer |  |  | increased |
